# Laboratory results published in patent US11634686B2, “Method of producing naive pluripotent stem cells” (priority 2016, dated 2023).
# Tests used:
# primed hPSCs = assay: Conversion of hPSCs from primed to naive pluripotency (Nanog+ cells among hNA+ human cells, dome-shaped colonies); type: cell-based; details: for effect of removal of the component from 2iLI medium on Nanog+ cells and mESC-like colonies: primed H9 after Torin1 3 hr, 5 days culture on MEF
# Protocol: Primed hPSCs were treated with 10 μM ROCK inhibitor Y27632 (Abcam) overnight in hESC medium. After being washed twice in phosphate-buffered saline (PBS), primed hPSCs were cultured in 2iLI medium with 10 μM Torin1 (Tocris) for 3 hours. 2iLI medium contained 50% glucose-free DMEM/F12 (Life Technologies) and 50% glucose-free Neurobasal (Life Technologies), 5 mM glucose, 1 mM glutamine, 1% NEAA, 0.1 mM […], 100 U/ml penicillin, 100 μg/ml streptomycin, 5 mg/mL bovine serum albumin (Sigma) to maintain osmolarity, 20 ng/mL recombinant human LIF (Millipore), […] human insulin (Sigma), 1 μM PD0325901 (PD, EMD Millipore), and 3 μM CHIR99021 (CH, Stemgent). For N004 iPSCs, 2iLI medium with 0.8 μM CHIR99021 was used instead. Then hPSCs were trypsinized into single cells using TrypLE (Life Technologies) for 5 min at 37° C. The single cells were plated on MEF feeders (5-6×10^4/cm^2) in 2iLI medium (without Torin1), which was changed daily. Small, bright, dome-shaped colonies appeared in 4-5 days and were picked manually at day 5-7 for dissociation by TrypLE into single cells, which were plated on fresh MEF cells. After several manual passages, mouse ESC-like colonies were uniformly seen and passaged every 3 days with TrypLE and maintained in 2iLI media (without Torin1). Immunostaining was performed using standard protocol to detect various antigens in cultured cells or frozen tissue sections. Briefly, cells or tissue sections were fixed in 4% paraformaldehyde (Sigma) for 20 min, treated with 0.1% Triton X-100 for 15 min at room temperature for permeabilization, blocked in 3% BSA for 1 hour at room temperature, and then incubated with the indicated primary antibodies (Table S1) overnight at 4° C. and secondary antibodies for 1 h at 37° C. Secondary antibodies were AlexaFluor 488, 594, and 647 (1:1,000, Thermo fisher Scientific). Alkaline phosphatase (AP) staining was performed using the Alkaline Phosphatase Kit (Millipore). Diaminobenzidine (DAB) staining was also used to detect GFP expression in frozen embryo sections according to manufacturer's protocol (Vector Laboratories). Briefly, the frozen sections on slides were thawed at room temperature for 5 min. Then the slides were treated with 0.3% H2O2 solution in PBS at room temperature for 10 min to block endogenous peroxidase activity, and then treated with 3% BSA for 45 min for blocking. The sections were incubated with primary antibody (anti-GFP) in 0.1% BSA for 30 min at room temperature, rinsed briefly in PBS 3 times (5 min each), and then incubated with biotinylated secondary antibody for 30 min followed by PBS rinsing for 3 times (5 min each). The sections were incubated with VECTASTAIN ABC reagent (Vector Laboratories) for 30 min, washed with PBS for 5 min. The sections were incubated with 100 μl peroxidase substrate solution (Sigma, D4293) on the slide under microscope until desired staining intensity and then washed with PBS to remove the substrate solution. For live imaging of mitochondria, primed or naive hPSCs were incubated in prewarmed hESC medium (for primed hPSCs) or 2iLI medium (for naive hPSCs) containing 50 nM MitoTracker Green FM or 100 nM TMRE (Life Technologies) for 15 min at 37° C. Then the staining medium was replaced with the corresponding prewarmed medium without dyes. Cells were then imaged on a Leica DMI6000B fluorescence microscope. Quantification of LC3II puncta was performed using NIH ImageJ with the AUTOCOUNTER pluggin, which calculates the percentage of cell area covered by LC3II puncta.
# primed H9 hESCs = assay: Autophagy by costaining for LC3 and Lamp1 (LC3II puncta); type: cell-based, human
# Protocol: (§1) Immunostaining was performed using standard protocol to detect various antigens in cultured cells or frozen tissue sections. Briefly, cells or tissue sections were fixed in 4% paraformaldehyde (Sigma) for 20 min, treated with 0.1% Triton X-100 for 15 min at room temperature for permeabilization, blocked in 3% BSA for 1 hour at room temperature, and then incubated with the indicated primary antibodies (Table S1) overnight at 4° C. and secondary antibodies for 1 h at 37° C. Secondary antibodies were AlexaFluor 488, 594, and 647 (1:1,000, Thermo fisher Scientific). Alkaline phosphatase (AP) staining was performed using the Alkaline Phosphatase Kit (Millipore). Diaminobenzidine (DAB) staining was also used to detect GFP expression in frozen embryo sections according to manufacturer's protocol (Vector Laboratories). Briefly, the frozen sections on slides were thawed at room temperature for 5 min. Then the slides were treated with 0.3% H2O2 solution in PBS at room temperature for 10 min to block endogenous peroxidase activity, and then treated with 3% BSA for 45 min for blocking. […] Cells were then imaged on a Leica DMI6000B fluorescence microscope. Quantification of LC3II puncta was performed using NIH ImageJ with the AUTOCOUNTER pluggin, which calculates the percentage of cell area covered by LC3II puncta.
# TFE3 = assay: Torin1/rapamycin-induced nuclear translocation of TFE3 (immunostaining); type: cell-based, human; details: primed H9 hESCs; inhibition of mTor
# Protocol: We named this medium 2iLI.
# as §1
molecule,measurement,setting,value
Cc1c[nH]c(-c2cnc(NCCNc3ccc(C#N)cn3)nc2-c2ccc(Cl)cc2Cl)n1 [CHIR99021],optimized concentration for conversion of N004 iPSCs to naive state,"primed hPSCs; N004 iPSCs, all other conditions as in 2iLI medium, percentage of human cells positive for Nanog",0.8 µM
same,effect of removal of the component from 2iLI medium on Nanog+ cells and mESC-like colonies,primed hPSCs,drastically reduced Nanog^+ cells and mESC-like colonies
"O=C(NOC[C@H](O)CO)c1ccc(F)c(F)c1Nc1ccc(I)cc1F [PD, PD0325901]",effect of removal of the component from 2iLI medium on Nanog+ cells and mESC-like colonies,primed hPSCs,drastically reduced Nanog^+ cells and mESC-like colonies
CNC(=O)c1ccccc1Oc1nc(Nc2cc(OC)c(OC)c(OC)c2)ncc1Br [SBI-0206965],effect on primed-to-naive conversion of blocking autophagy,"primed hPSCs; primed H9 treated 3 hr, with 2iLI and Torin1, Nanog+ of hNA+ cells after five days",not significantly affected
CCC(=O)N1CCN(c2ccc(-n3c(=O)ccc4cnc5ccc(-c6cnc7ccccc7c6)cc5c43)cc2C(F)(F)F)CC1 [Torin1],"induction of autophagy, combined treatment",primed H9 hESCs; 2iLI medium with 5 mM glucose and 10 μM Torin1 for 3 hr,induced autophagy most prominently
same,induction of autophagy,"primed H9 hESCs; primed H9 in hESC medium, mTor inhibition for 3 hr",induced autophagy
same,translocation of TFE3 from cytoplasm to nucleus,TFE3,induced rapid translocation of TFE3 from cytoplasm to nucleus
same,conversion of hPSCs from primed to naive pluripotency,"primed hPSCs; transient treatment (10 μM for 3 hr) in 2iLI medium, 5 mM glucose, 5% O2",converted hPSCs from primed to naive pluripotency
"human LIF: recombinant human Leukemia Inhibitory Factor, component of 2iLI medium",effect of removal of the component from 2iLI medium on Nanog+ cells and mESC-like colonies,primed hPSCs,drastically reduced Nanog^+ cells and mESC-like colonies
"human insulin: human insulin, component of 2iLI medium",percentage of Nanog+ cells among all human cells (hNA+) on replacing N2 and B27 supplements,"primed hPSCs; primed H9, Torin1 10 μM 3 hr, human insulin 18 μg/ml, about 5 days on MEF feeders",much higher percentage of Nanog^+ cells
same,effect of removal of the component from 2iLI medium on Nanog+ cells and mESC-like colonies,primed hPSCs,drastically reduced Nanog^+ cells and mESC-like colonies
